This experiment concerns the target T1, GLP-1R (Homo sapiens, UniProt P43220).
T1 construct: expressed in transfected cells
The experiment can be described thus: GLP-1R agonistic effect in GLP1R-cAmp-Luc cells (luciferase reporter; titled 'Enzymatic assay'). It is filed as cell-based. The note with it: for EC50: 4 hours incubation, firefly luciferin signal; for EC50 of Positive reference / EC50 of Compound of the Present Application: Positive reference is PF-06882961. The protocol:
The GLP-1R agonistic effects of the test compounds were determined using GLP1R-cAmp-Luc cells. 1) The test compound was dissolved in DMSO and mixed well until the test compound was completely dissolved. The test compounds were dissolved in DMSO to prepare 10 mM stock solutions. All compounds were diluted with DMEM medium (high sugar, Puromycin^+, Hygromycin B^+) to an initial concentration of 1250 nM, and then subjected to 5-fold serial dilution to a total of 7 concentration gradients. The GLP1R-cAmp-Luc cells were seeded in white-wall 96-well cell culture plates at a density of 1×10^5/mL, with 90 µL cell suspension per well; the test compound at each of the 7 concentration gradients was added at 10 µL per well, with the actual initial working concentration of 125 nM; and the cells were placed in a 37 °C, 5% CO2 cell incubator for 4 hours; 2) 100 µL of luciferin potassium salt solution diluted to 300 µg/mL in PBS was added to each well at a working concentration of 150 µg/mL and incubated at room temperature for 30 minutes; 3) fluorescence signals of firefly luciferin were measured with a multifunctional microplate reader (PerkinElmer, Nivo); and the fluorescence values were processed using GraphPad Prism software to calculate EC50 values.
For orientation: In a reporter assay the amount or activity of a reporter protein is the signal.

Some results are limits rather than exact numbers.

T1 sequence (P43220 24-463, species assumed): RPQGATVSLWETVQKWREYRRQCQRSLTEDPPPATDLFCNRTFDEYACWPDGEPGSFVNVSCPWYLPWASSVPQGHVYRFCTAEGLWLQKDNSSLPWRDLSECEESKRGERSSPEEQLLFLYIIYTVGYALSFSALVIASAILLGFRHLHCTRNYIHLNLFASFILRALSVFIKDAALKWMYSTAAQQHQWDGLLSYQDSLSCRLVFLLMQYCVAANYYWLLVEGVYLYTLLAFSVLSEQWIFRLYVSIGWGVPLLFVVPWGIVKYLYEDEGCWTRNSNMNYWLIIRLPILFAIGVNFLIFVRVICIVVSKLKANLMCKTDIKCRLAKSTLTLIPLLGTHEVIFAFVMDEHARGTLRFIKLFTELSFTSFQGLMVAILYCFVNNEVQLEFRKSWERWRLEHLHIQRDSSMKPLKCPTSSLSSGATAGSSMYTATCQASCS

The EC50 is the midpoint of the concentration-response curve. High values mean a less potent agent, low ones a more potent agent. On to `N#Cc1ccc(COc2cccc(-c3ccc(Cc4nc5ccc(C(=O)O)cc5n4C[C@@H]4CCO4)c4c3OCO4)n2)c(F)c1` [Compound 1, (S)-2-((7-(6-((4-cyano-2-fluorobenzyl)oxy)pyridin-2-yl)benzo[d][1,3]dioxolan-4-yl)methyl)-1-(oxetan-2-ylmethyl)-1H-benzo[d]imidazole-6-carboxylic acid], for which the EC50 lay within 5 to 10 nM.
In turn, `N#Cc1ccc(COc2cccc(-c3ccc(Cc4nc5ccc(C(=O)O)cc5n4C[C@@H]4CCO4)c4c3OCC4)n2)c(F)c1` [Compound 2, (S)-2-((7-(6-((4-cyano-2-fluorobenzyl)oxy)pyridin-2-yl)-2,3-dihydrobenzofuran-4-yl)methyl)-1-(oxetan-2-ylmethyl)-1H-benzo[d]imidazole-6-carboxylic acid] gave an EC50 of 1 to 5 nM.
Compound `CC(c1ccc(-c2cccc(OCc3ccc(C#N)cc3F)n2)c2c1CCO2)c1nc2ccc(C(=O)O)cc2n1C[C@@H]1CCO1` (stereo partly drawn) [Compound 6, 2-(1-(7-(6-((4-cyano-2-fluorobenzyl)oxy)pyridin-2-yl)-2,3-dihydrobenzofuran-4-yl)ethyl)-1-(((S)-oxetan-2-yl)methyl)-1H-benzo[d]imidazole-6-carboxylic acid] gave a concentration for a half-maximal effect (EC50) of 5 to 10 nM.
Consider `N#Cc1ccc(COc2cccc(-c3cc(Cl)c(Cc4nc5ccc(C(=O)O)cc5n4C[C@@H]4CCO4)c4c3OCC4)n2)c(F)c1` [Compound 7, (S)-2-((5-chloro-7-(6-((4-cyano-2-fluorobenzyl)oxy)pyridin-2-yl)-2,3-dihydrobenzofuran-4-yl)methyl)-1-(oxetan-2-ylmethyl)-1H-benzo[d]imidazole-6-carboxylic acid], for which the EC50 was at most 1 nM and the “EC50 of Positive reference / EC50 of Compound of the Present Application” value was “Ratio ≥10”.
Compound `O=C(O)c1ccc2nc(Cc3ccc(-c4cccc(OCc5ccc(Cl)cc5F)n4)c4[nH]ccc34)n(C[C@@H]3CCO3)c2c1` [Compound 9, (S)-2-((7-(6-((4-chloro-2-fluorobenzyl)oxy)pyridin-2-yl)-1H-indol-4-yl)methyl)-1-(oxetan-2-ylmethyl)-1H-benzo[d]imidazole-6-carboxylic acid] returned a 50% effective concentration (EC50) of 1 to 5 nM.
As to `O=C(O)c1ccc2nc(Cc3c(F)cc(-c4cccc(OCc5ccc(Cl)cc5F)n4)c4c3CCO4)n(C[C@@H]3CCO3)c2c1` [Compound 12, (S)-2-((7-(6-((4-chloro-2-fluorobenzyl)oxy)pyridin-2-yl)-5-fluoro-2,3-dihydrobenzofuran-4-yl)methyl)-1-(oxetan-2-ylmethyl)-1H-benzo[d]imidazole-6-carboxylic acid], the concentration for a half-maximal effect (EC50) was at most 1 nM and the “EC50 of Positive reference / EC50 of Compound of the Present Application” value was “Ratio ≥10”.
For the compound `N#Cc1ccc(COc2cccc(-c3cc(F)c(Cc4nc5c(F)cc(C(=O)O)cc5n4C[C@@H]4CCO4)c4c3OCC4)n2)c(F)c1` [Compound 13, (S)-2-((7-(6-((4-cyano-2-fluorobenzyl)oxy)pyridin-2-yl)-5-fluoro-2,3-dihydrobenzofuran-4-yl)methyl)-4-fluoro-1-(oxetan-2-ylmethyl)-1H-benzo[d]imidazole-6-carboxylic acid], the half-maximal effective concentration (EC50) is at most 1 nM and the “EC50 of Positive reference / EC50 of Compound of the Present Application” value is “Ratio ≥10”.
The compound `N#CCC1(Cn2c(Cc3c(Cl)cc(-c4cccc(OCc5ccc(C#N)cc5F)n4)c4c3CCO4)nc3ccc(C(=O)O)cc32)CC1` [Compound 18, 2-((5-chloro-7-(6-((4-cyano-2-fluorobenzyl)oxy)pyridin-2-yl)-2,3-dihydrobenzofuran-4-yl)methyl)-1-((1-(cyanomethyl)cyclopropyl)methyl)-1H-benzo[d]imidazole-6-carboxylic acid] returned an EC50 of 1 to 5 nM.
Still for that read-out and setting: with `N#CCC1(Cn2c(Cc3c(Cl)cc(-c4cccc(OCc5ccc(C#N)cc5F)n4)c4c3CCO4)nc3ccc(C(=O)O)nc32)CC1` [Compound 19, 2-((5-chloro-7-(6-((4-cyano-2-fluorobenzyl)oxy)pyridin-2-yl)-2,3-dihydrobenzofuran-4-yl)methyl)-3-((1-(cyanomethyl)cyclopropyl)methyl)-3H-imidazo[4,5-b]pyridine-5-carboxylic acid] the figure was 1 to 5 nM; with `O=C(O)c1ccc2nc(Cc3ccc(-c4cccc(OCc5ccc(Cl)cc5F)n4)c4c3CCC4=O)n(C[C@@H]3CCO3)c2c1` [Compound 20, (S)-2-((7-(6-((4-chloro-2-fluorobenzyl)oxy)pyridin-2-yl)-1-oxo-2,3-dihydro-1H-inden-4-yl)methyl)-1-(oxetan-2-ylmethyl)-1H-benzo[d]imidazole-6-carboxylic acid], 1 to 5 nM; with `COc1cc(C(F)(F)F)ccc1COc1cccc(-c2ccc(Cc3nc4c(OC)cc(C(=O)O)cc4n3C[C@@H]3CCO3)c3c2OCCO3)n1` [Compound 62, (S)-4-methoxy-2-((8-(6-((2-methoxy-4-(trifluoromethyl)benzyl)oxy)pyridin-2-yl)-2,3-dihydrobenzo[b][1,4]dioxan-5-yl)methyl)-1-(oxetan-2-ylmethyl)-1H-benzo[d]imidazole-6-carboxylic acid], 1 to 5 nM.
With `COc1cc(C(F)(F)F)ccc1COc1cccc(-c2cc(F)c(Cc3nc4c(OCC(F)F)cc(C(=O)O)cc4n3CC3(CF)CC3)c3c2OCC3)n1` [Compound 79], the EC50 is at most 1 nM.
For the compound `COc1cc(C(F)(F)F)ccc1COc1cccc(-c2cc(F)c(Cc3nc4c(OC)cc(C(=O)O)cc4n3C[C@@H]3CCO3)c3c2OCC3)n1` [Compound 80, (S)-2-((5-fluoro-7-(6-((2-methoxy-4-(trifluoromethyl)benzyl)oxy)pyridin-2-yl)-2,3-dihydrobenzofuran-4-yl)methyl)-4-methoxy-1-(oxetan-2-ylmethyl)-1H-benzo[d]imidazole-6-carboxylic acid], the half-maximal effective concentration (EC50) was at most 1 nM and the “EC50 of Positive reference / EC50 of Compound of the Present Application” value was “Ratio ≥10”.
`COc1cc(C(=O)O)cc2c1nc(Cc1c(F)cc(-c3cccc(OCc4ccc(Cl)cc4F)n3)c3c1CCO3)n2C[C@@H]1CCO1` [Compound 81, (S)-2-((7-(6-((4-chloro-2-fluorobenzyl)oxy)pyridin-2-yl)-5-fluoro-2,3-dihydrobenzofuran-4-yl)methyl)-4-methoxy-1-(oxetan-2-ylmethyl)-1H-benzo[d]imidazole-6-carboxylic acid]: the EC50 is at most 1 nM and the “EC50 of Positive reference / EC50 of Compound of the Present Application” value was “Ratio ≥10”.
Turning to `COc1cc(C(=O)O)cc2c1nc(Cc1c(F)cc(-c3cccc(OCc4ccc(Cl)cc4OC(F)F)n3)c3c1CCO3)n2C[C@@H]1CCO1` [Compound 84, (S)-2-((7-(6-((4-chloro-2-(difluoromethoxy)benzyl)oxy)pyridin-2-yl)-5-fluoro-2,3-dihydrobenzofuran-4-yl)methyl)-4-methoxy-1-(oxetan-2-ylmethyl)-1H-benzo[d]imidazole-6-carboxylic acid], the concentration giving a half-maximal response (EC50) is at most 1 nM and the “EC50 of Positive reference / EC50 of Compound of the Present Application” value is listed as “Ratio ≥10”.
For the compound `O=C(O)c1cc(OCC(F)F)c2nc(Cc3c(F)cc(-c4cccc(OCc5ccc(Cl)cc5OC(F)F)n4)c4c3OCO4)n(CC3(CF)CC3)c2c1` [Compound 86, 2-((7-(6-((4-Chloro-2-(difluoromethoxy)benzyl)oxy)pyridin-2-yl)-5-fluoro-benzo[d][1,3]dioxolan-4-yl)methyl)-4-(2,2-difluoroethoxy)-1-((1-(fluoromethyl)cyclopropyl)methyl)-1H-benzo[d]imidazole-6-carboxylic acid], the EC50 is 1 to 5 nM.
On the same count and under the same terms, with `O=C(O)c1ccc2nc(Cc3c(F)cc(-c4cccc(OCc5ccc(Cl)cc5OC(F)F)n4)c4c3CCO4)n(C[C@@H]3CCO3)c2c1` [Compound 95, (S)-2-((7-(6-((4-chloro-2-(difluoromethoxy)benzyl)oxy)pyridin-2-yl)-5-fluoro-2,3-dihydrobenzofuran-4-yl)methyl)-1-(oxetan-2-ylmethyl)-1H-benzimidazole-6-carboxylic acid] the figure was at most 1 nM.
Turning to `COc1cc(C(=O)O)cc2c1nc(Cc1c(F)cc(-c3cccc(OCc4ccc(C#N)cc4F)n3)c3c1CCO3)n2C[C@@H]1CCO1` [Compound 100, (S)-2-((7-(6-((4-cyano-2-fluorobenzyl)oxy)pyridin-2-yl)-5-fluoro-2,3-dihydrobenzofuran-4-yl)methyl)-4-methoxy-1-(oxetan-2-ylmethyl)-1H-benzo[d]imidazole-6-carboxylic acid], the EC50 is at most 1 nM and the “EC50 of Positive reference / EC50 of Compound of the Present Application” value is on record as “Ratio ≥10”.
For `COc1cc(C(=O)O)cc2c1nc(Cc1c(F)cc(-c3ccnc(OCc4ccc(Cl)cc4F)n3)c3c1CCO3)n2C[C@@H]1CCO1` [Compound 106, (S)-2-((7-(2-((4-chloro-2-fluorobenzyl)oxy)pyrimidin-4-yl)-5-fluoro-2,3-dihydrobenzofuran-4-yl)methyl)-4-methoxy-1-(oxetan-2-ylmethyl)-1H-benzo[d]imidazole-6-carboxylic acid], the concentration giving a half-maximal response (EC50) was at most 1 nM and the “EC50 of Positive reference / EC50 of Compound of the Present Application” value is “Ratio ≥10”.
Compound `COc1cc(C(=O)O)cc2c1nc(Cc1c(F)cc(-c3cccc(OCc4ccc(Cl)cc4F)c3)c3c1CCO3)n2C[C@@H]1CCO1` [Compound 107, (S)-2-((7-(3-((4-chloro-2-fluorobenzyl)oxy)phenyl)-5-fluoro-2,3-dihydrobenzofuran-4-yl)methyl)-4-methoxy-1-(oxetan-2-ylmethyl)-1H-benzo[d]imidazole-6-carboxylic acid] returned an EC50 of 1 to 5 nM.

Source of the values: patent EP4748839A1 (CSPC Zhongqi Pharmaceutical Technology (Shijiazhuang) Co., …, priority 2023, dated 2025).
